One may read the IC50 as the concentration that inhibits the measured activity by half. By EC90 is commonly meant the concentration needed for an effect of 90%. A higher EC90 goes with weaker potency.

Data on eight compounds can be found in patent US20040116420A1 (priority 2001, published 2004).

The subject of one data set is Vero cells. Briefly: Cytotoxicity, Vero cells, Alamar Blue. The format is cell-based. The following applies: 25 μM, 20 hours. An outline of the steps: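 Overnight-seeded Vero cells were exposed to 25 μM compound in 2% FBS-DMEM for 20 h at 37 °C, 5% CO2. Alamar Blue was then added for about 6 h. The absorbance ratio relative to compound-free control gave the living-cell ratio.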

The target of another data set is T1, HSV-1 protease (Human herpesvirus 1, UniProt P10210).
T1 construct: 6xHis (N); made in house; host or cells: baculovirus expression system
Briefly: Enzymatic assay for HSV-1 protease (assembly) inhibitor, fluorescence polarization. The format is biochemical. The following applies: read-out: HSV-1 Enzyme inhibition IC50. An outline of the steps: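 His6-tagged HSV-1 UL26 protease, baculovirus-expressed, preincubated 30 min at RT with compound in 1 M citrate/phosphate buffer pH 7.4 with 20% glycerol and 2 mM TCEP. A biotin-HTYLQA*SERFRIK-DTAF substrate was then cleaved for 60 min at RT, stopped with avidin, and read by fluorescence polarization versus no-inhibitor control.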

In a further data set the test system is HSV-1. Kind of data set: Antiviral activity, HSV-1 in Vero cells, plaque method. The format is cell-based. The note with it: Human alphaherpesvirus 1, 20 hours, 90% inhibition of plaque formation. Summed up: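 HSV-1 (50,000 pfu in 2% FBS-DMEM) was added to Vero cells and removed, then the compound was applied in 2% FBS-DMEM for 20 h at 37° C, 5% CO2. After a freeze-thaw, virus yield in the medium was titred by plaque assay. EC90 is the concentration giving 90% plaque reduction versus the compound-free control.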

SMILES strings stand for the structures.

T1 sequence (P10210 1-247): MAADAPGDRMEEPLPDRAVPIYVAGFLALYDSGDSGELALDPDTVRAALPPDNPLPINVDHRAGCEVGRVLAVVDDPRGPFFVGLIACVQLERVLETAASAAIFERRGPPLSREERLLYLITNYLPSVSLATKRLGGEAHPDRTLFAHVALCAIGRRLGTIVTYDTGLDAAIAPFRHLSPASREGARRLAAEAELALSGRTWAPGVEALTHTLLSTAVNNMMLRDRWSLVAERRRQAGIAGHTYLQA

Turning to `Cc1c(NC(=O)c2cccc3ccccc23)ccc2nc(NC(C)(C)C(=O)N(C)CCc3ccccn3)oc(=O)c12` [Compound No.190, Naphthalene-1-carboxylic acid (5-methyl-2-{1-methyl-1-[methyl-(2-pyridin-2-yl-ethyl)-carbamoyl]-ethylamino}-4-oxo-4H-benzo[d][1,3]oxazin-6-yl)-amide], the “Cell viability (% of control)” value in the data set with Vero cells is reported as 74.5%. The IC50 at HSV-1 protease is 1.3 µM. In the data set with HSV-1, this compound registered an EC90 of 12.4 µM.

As to `Cc1c(NC(=O)OC(C)(C)C)ccc2nc(N3C[C@H](OCc4ccccc4)C[C@H]3C(=O)N(C)Cc3ccccn3)oc(=O)c12` [Compound No.113, {2-[4R-Benzyloxy-2S-(methyl-pyridin-2-ylmethyl-carbamoyl)-pyrrolidin-1-yl]-5-methyl-4-oxo-4H-benzo[d][1,3]oxazin-6-yl}-carbamic acid tert-butyl ester], the “Cell viability (% of control)” value in the data set on Vero cells turned out to be 71.7%. Moreover, the concentration for half-maximal inhibition (IC50) at HSV-1 protease came out at 10.1 µM. In the data set with HSV-1, this compound had an EC90 of 8.8 µM.

With `Cc1c(NC(=O)c2cccc([N+](=O)[O-])c2)ccc2nc(NC(C)(C)C(=O)N(C)CCc3ccccn3)oc(=O)c12` [Compound No.141, N-(5-Methyl-2-{1-methyl-1-[methyl-(2-pyridin-2-yl-ethyl)-carbamoyl]-ethylamino}-4-oxo-4H-benzo[d][1,3]oxazin-6-yl)-3-nitro-benzamide], the “Cell viability (% of control)” value in the data set with Vero cells worked out at 80.4%. The IC50 at HSV-1 protease stood at 8 µM. This compound also yielded an EC90 in the data set on HSV-1 above 12.5 µM.

As for `Cc1c(NC(=O)OC(C)(C)C)ccc2nc(N(C)[C@@H](Cc3ccccc3)C(=O)N(C)CCc3cccnc3)oc(=O)c12` [Compound No.84, [5-Methyl-2-(methyl-{1S-[methyl-(2-pyridin-3-yl-ethyl)-carbamoyl]-2-phenyl-ethyl}-amino)-4-oxo-4H-benzo[d][1,3]oxazin-6-yl]-carbamic acid tert-butyl ester], in the data set on Vero cells, the “Cell viability (% of control)” value is 37.6%. For the same compound, the IC50 on HSV-1 protease was found to be 1.7 µM. In the data set with HSV-1, this compound displayed an EC90 of 11 µM.

In the case of `Cc1c(NC(=O)OC(C)(C)C)ccc2nc(N(C)[C@@H](Cc3ccccc3)C(=O)NCCc3ccccn3)oc(=O)c12` [Compound No.81, (5-Methyl-2-{methyl-[2-phenyl-1S-(2-pyridin-2-yl-ethylcarbamoyl)-ethyl]-amino}-4-oxo-4H-benzo[d][1,3]oxazin-6-yl)-carbamic acid tert-butyl ester], the “Cell viability (% of control)” value in the data set on Vero cells is reported as 49.7%. In addition, the IC50 at HSV-1 protease stood at 1.7 µM. In the data set with HSV-1, this compound returned an EC90 of 9.5 µM.

Regarding `Cc1c(NC(=O)c2ccc(C(F)(F)F)cc2)ccc2nc(NC(C)(C)C(=O)N(C)CCc3ccccn3)oc(=O)c12` [Compound No.146, N-(5-Methyl-2-{1-methyl-1-[methyl-(2-pyridin-2-yl-ethyl)-carbamoyl]-ethylamino}-4-oxo-4H-benzo[d][1,3]oxazin-6-yl)-4-trifluoromethyl-benzamide], the “Cell viability (% of control)” value with Vero cells was 18.0%. Besides, on HSV-1 protease, the IC50 was found to be 1.2 µM. For the same compound, the EC90 in the data set on HSV-1 amounted to 5.6 µM.

Consider `Cc1c(NC(=O)c2cccc(C(F)(F)F)c2)ccc2nc(NC(C)(C)C(=O)N(C)CCc3ccccn3)oc(=O)c12` [Compound No.145, N-(5-Methyl-2-{1-methyl-1-[methyl-(2-pyridin-2-yl-ethyl)-carbamoyl]-ethylamino}-4-oxo-4H-benzo[d][1,3]oxazin-6-yl)-3-trifluoromethyl-benzamide], for which the “Cell viability (% of control)” value in the data set with Vero cells is given as 19.7%. On HSV-1 protease, the IC50 worked out at 1.3 µM. Moreover, in the data set with HSV-1, the EC90 was found to be 6 µM.

For the compound `Cc1c(NC(=O)CCl)ccc2nc(NC(C)(C)C(=O)N(C)CCc3ccccn3)oc(=O)c12` [Compound No.189, 2-[6-(2-Chloro-acetylamino)-5-methyl-4-oxo-4H-benzo[d][1,3]oxazin-2-ylamino]-2,N-dimethyl-N-(2-pyridin-2-yl-ethyl)-propionamide], the “Cell viability (% of control)” value with Vero cells came out at 41.0%. The IC50 on HSV-1 protease came out at 2 µM. Besides, the EC90 with HSV-1 was above 12.5 µM.
